In patent US10130608B2, “Methods of treating or preventing multiple sclerosis” (Toray Industries, Inc., priority 2014, dated 2018):

Columns and labels:
[1] = system: PLP-induced mouse experimental autoimmune encephalomyelitis model; assay: PLP-induced mouse experimental autoimmune encephalomyelitis model; assay type: in vivo; conditions: SJL mouse, PLP 139-151; 10 mg/kg orally twice daily for 7 days from two days after inoculation; scored 9 days after inoculation
Experimental: Action of the cyclohexane derivative (I) or the pharmaceutically acceptable salt thereof against an increase in the neurological symptom score in a PLP-induced mouse experimental autoimmune encephalomyelitis model was evaluated. The mouse experimental autoimmune encephalomyelitis model was prepared according to the method described in International Immunology, 1997, Vol. 9, pp. 1243-1251 with partial modification. A PLP 139-151 administration solution, which was prepared by mixing equal volumes of a PBS solution containing a partially synthesized peptide of PLP (PLP 139-151; Kokusan Chemical Co., Ltd.) whose concentration was adjusted to 2 mg/mL and Freund's complete adjuvant, was intracutaneously inoculated to both lateral regions of each SJL mouse (female, 6-weeks old) (Charles River Laboratories Japan) in a total amount of 0.1 mL (0.05 mL per side). Further, on the day of inoculation of the PLP 139-151 administration solution, and two days thereafter, 200 μL of pertussis toxin (Sigma) whose concentration was adjusted to 1 μg/mL was intraperitoneally administered to each mouse. […] Nine days after inoculation of the PLP 139-151 administration solution, the neurological symptom score was scored (0: normal, 1: limp tail or hind limb weakness, 2: limp tail and hind limb weakness, 3: partial hind limb paralysis, 4: complete hind limb paralysis, 5: moribund state). […]

[2] = system: MOG-induced mouse experimental autoimmune encephalomyelitis model; assay: MOG-induced mouse experimental autoimmune encephalomyelitis model, 3 mg/kg and 10 mg/kg; assay type: in vivo; conditions: C57BL/6J mouse, MOG 35-55, scored 14 days after inoculation
Experimental: Action of the cyclohexane derivative (I) or the pharmaceutically acceptable salt thereof against an increase in the neurological symptom score in a MOG-induced mouse experimental autoimmune encephalomyelitis model was evaluated. A MOG 35-55 administration solution, which was prepared by mixing equal volumes of a PBS solution containing a partially synthesized peptide of MOG (MOG 35-55; CS Bio Company Inc.) whose concentration was adjusted to 4 mg/mL and Freund's complete adjuvant, was intracutaneously inoculated to both lateral regions of each C57BL/6J mouse (male, 10-weeks old) (Charles River Laboratories Japan) in a total amount of 0.1 mL (0.05 mL per side). Further, on the day of inoculation of the MOG 35-55 administration solution, and two days thereafter, 200 μL of pertussis toxin (Sigma) whose concentration was adjusted to 1 μg/mL was intraperitoneally administered to each mouse. As a test compound, Compound 3 was used. […] Fourteen days after inoculation of the MOG 35-55 administration solution, the neurological symptom score was scored (0: normal, 1: limp tail or hind limb weakness, 2: limp tail and hind limb weakness, 3: partial hind limb paralysis, 4: complete hind limb paralysis, 5: moribund state). […]

[3] = system: MOG-induced mouse experimental autoimmune encephalomyelitis model; assay: MOG-induced mouse experimental autoimmune encephalomyelitis model, 30 mg/kg; assay type: in vivo; conditions: C57BL/6J mouse, MOG 35-55; 30 mg/kg orally twice daily for 16 days from three days before inoculation; scored 13 days after inoculation
Experimental: The action of the cyclohexane derivative (I) or the pharmaceutically acceptable salt thereof against an increase in the neurological symptom score in a MOG-induced mouse experimental autoimmune encephalomyelitis model was evaluated. The mouse experimental autoimmune encephalomyelitis model was prepared according to the method described in Journal of Neuroscience Research, 2006, Vol. 84, pp. 1225-1234 with partial modification. A MOG 35-55 administration solution, which was prepared by mixing equal volumes of a PBS solution containing a partially synthesized peptide of MOG (MOG 35-55; CS Bio Company Inc.) whose concentration was adjusted to 4 mg/mL and Freund's complete adjuvant, was intracutaneously inoculated to both lateral regions of each C57BL/6J mouse (male, 7-weeks old) (Charles River Laboratories Japan) in a total amount of 0.1 mL (0.05 mL per side). Further, on the day of inoculation of the MOG 35-55 administration solution, and two days thereafter, 200 μL of pertussis toxin (Sigma) whose concentration was adjusted to 1 μg/mL was intraperitoneally administered to each mouse. From three days before inoculation of the MOG 35-55 administration solution, Compound 3 was orally administered to mice twice daily at a dose of 30 mg/kg for 16 successive days. Compound 3 was used as a suspension in 0.5% methylcellulose solution. The group in which Compound 3 was administered to mice was provided as the Compound 3 administration group. To provide a vehicle administration group, 0.5% methylcellulose solution was administered in the same manner. Thirteen days after inoculation of the MOG 35-55 administration solution, the neurological symptom score was scored (0: normal, 1: limp tail or hind limb weakness, 2: limp tail and hind limb weakness, 3: partial hind limb paralysis, 4: complete hind limb paralysis, 5: moribund state). […] Comparative Control Compound 1 and Comparative Control Compound 2 were similarly evaluated. […] Thirteen days after inoculation of the MOG 35-55 administration solution, the neurological symptom score was scored.

thrombin = target: T1, thrombin (Homo sapiens, UniProt P00734); assay: Thrombin activity assay (SensoLyte 520 kit, FRET); assay type: biochemical; conditions: at the maximum concentration, 30 μmol/L; read-out: thrombin activity inhibition rate
T1 construct: purchased Anaspec Inc
Experimental: The action of the cyclohexane derivative (I) or the pharmaceutically acceptable salt thereof on the thrombin activity was evaluated using a SensoLyte (registered trademark) 520 thrombin activity assay kit manufactured by Anaspec Inc., which utilizes fluorescence resonance energy transfer (FRET).
The test compound was dissolved in dimethylsulfoxide (hereinafter referred to as DMSO), and diluted with the assay buffer included in the kit to a final DMSO concentration of 0.5 to 1%. […] Thereafter, the fluorescence value was measured by excitation at 485 nm and detection at 520 nm.
The thrombin activity inhibition rate (%) was calculated according to Equation 1, and regression analysis was carried out to obtain a sigmoid curve (variable slope), thereby calculating the IC50 value of the thrombin activity inhibition by the test compound: Thrombin activity inhibition rate (%)=(1−((fluorescence value in the presence of both thrombin and the test compound)−(fluorescence value in the absence of both thrombin and the test compound))/((fluorescence value in the presence of thrombin and absence of the test compound)−(fluorescence value in the absence of both thrombin and the test compound)))×100 Equation 1.

SMILES | rate of suppression of exacerbation of neurological symptoms [1] | rate of suppression of exacerbation of neurological symptoms ([2]; 3 mg/kg orally twice daily for 12 days from two days after inoculation) | rate of suppression of exacerbation of neurological symptoms ([2]; 10 mg/kg orally twice daily for 12 days from two days after inoculation) | rate of suppression of exacerbation of neurological symptoms [3] | inhibition at 30 µM (thrombin)
COc1ccc(-n2nc(C3(O)CCC(O)CC3)cc2-c2ccc(C)cc2)cc1 (stereo not drawn) [Compound 3, 1-(1-(4-methoxyphenyl)-5-(p-tolyl)-1H-pyrazol-3-yl)cyclohexane-cis-1,4-diol] | 66.4% | 53.8% | 61.5% | 85.7% | 17.2%
COc1ccc(-n2nc(C3(O)CCNCC3)cc2-c2ccc(C)cc2)cc1 [Comparative Control Compound 1] | – | – | – | 3.3% | –
COc1ccc(-n2nc(C3(O)CCC(O)CC3)cc2-c2ccccc2C)cc1 (stereo not shown) [Comparative Control Compound 2] | – | – | – | 6.5% | –
